Test results taken from patent publication US11866515B2, “Hemiasterlin derivatives for conjugation and therapy” (priority 2015, dated 2024).

How the values were obtained:
Target Positive Cell = assay: Tumor cell line assay Example 2b, target positive cells; format: cell-based; conditions: hemiasterlin derivatives, 120 hrs
Procedure: (§1) Cytotoxicity effects of test compounds on target positive and target negative cells were measured with a cell proliferation assay. Tumor cell lines were obtained from American Type Culture Collection (ATCC) and maintained in Ham's F-12: high glucose DMEM (50:50) glucose medium supplemented with 10% heat-inactivated fetal bovine serum, 1% Penicillin/Streptomcin and 2 mmol/L L-glutamax. Target positive and negative cells (a total of 625 cells per well) were seeded in a volume of 25 μL in a 384-well flat bottom white polystyrene plate. The cells were allowed to adhere overnight at 37° C. in a CO2 incubator. ADC variants were formulated at 2× concentration in DMEM/F12 medium and filtered through MultiScreen HTS 96-Well Filter Plates. Filter sterilized ADCs were serial diluted (1:3) and 25 μL of diluted samples were added into each treatment wells. Plates were then cultured at 37° C. in a CO2 incubator for 120 hrs. For cell viability measurement, 30 μL of Cell Titer-Glo® reagent (Promega Corp) was added into each well, and plates processed as per product instructions. Relative luminescence was measured on an ENVISION® plate reader (Perkin-Elmer; Waltham, Mass.). Relative luminescence readings were converted to % viability using untreated cells as controls. Data was fitted with non-linear regression analysis, using log(inhibitor) vs. response, variable slope, 4 parameter fit equation using GraphPad Prism (GraphPad v 5.00, Software; San Diego, Calif.). Data was expressed as % relative cell viability vs. dose of ADC in nM.

Target Negative Cell = assay: Tumor cell line assay Example 2b, target negative cells; format: cell-based; conditions: hemiasterlin derivatives, 120 hrs
Procedure: as §1

RPMI-6666 (HL) = assay: Cell binding assay anti-CD74, RPMI-6666; conditions: B-Lymphoma
Procedure: (§2) Cell lines were maintained in RPMI, high glucose (Cellgro-Mediatech; Manassas, Va.) supplemented with 20% heat-inactivated fetal bovine serum (Hyclone; Thermo Scientific; Waltham, Mass.), 2 mM glutamax (Invitrogen; Carlsbad, Calif.) and 1× Pencillin/streptomycin (Cellgro-Mediatech; Manassas, Va.). Cells were harvested and re-suspended in FACS buffer (DPBS buffer supplemented with 1% bovine serum albumin). A total of 200,000 cells per well were incubated on ice with serial dilutions of anti-CD74 lead SP7919 without conjugation for 60 minutes. Cells were washed twice with ice-cold FACS buffer and incubated with 5 ug/ml Alexa 647 labeled donkey anti-human IgG antibody (Jackson Immune-Research) on ice for another 60 mins. Unstained cells and cells stained with secondary antibody alone were used as controls. Samples were then washed twice using FACS buffer and analyzed using a BD FACS Canto system. Mean fluorescence intensities were fitted using non-linear regression analysis with one site specific binding equation on GraphPad Prism. Data was expressed as geometric mean fluorescent intensity vs. antibody concentration in nM.

SU-DHL-6 (NHL) = assay: Cell binding assay anti-CD74, SU-DHL-6; conditions: B-Lymphoma
Procedure: as §2

ARD (MM) = assay: Cell binding assay anti-CD74, ARD; conditions: Multiple Myeloma
Procedure: as §2

RPMI-8226 (MM) = assay: Cell binding assay anti-CD74, RPMI-8226; conditions: Multiple Myeloma
Procedure: as §2

BDCM (AML) = assay: Cell binding assay anti-CD74, BDCM; conditions: Leukemia
Procedure: as §2

SUP-B15 (ALL) = assay: Cell binding assay anti-CD74, SUP-B15; conditions: Leukemia
Procedure: as §2

JVM-13 (CLL) = assay: Cell binding assay anti-CD74, JVM-13; conditions: Leukemia
Procedure: as §2

In the case of `CN[C@H](C(=O)N[C@H](C(=O)N(C)[C@H](/C=C(\C)C(=O)O)C(C)C)C(C)(C)C)C(C)(C)c1cccc(NC(=O)OCc2ccc(NC(=O)[C@H](C)NC(=O)[C@@H](NC(=O)CCCCC(=O)N3Cc4ccccc4C#Cc4ccccc43)C(C)C)cc2)c1` [Compound 110a], the IC50 (Target Positive Cell) is reported as 26 nM, the “Target Positive Cell Span (%)” value (Target Positive Cell) is reported as 93% and the IC50 (Target Negative Cell) is reported as 337 nM. The “Target Negative Cell Span (%)” value (Target Negative Cell) was 90%.

In the case of `CN[C@H](C(=O)NC(C(=O)N(C)[C@H](/C=C(\C)C(=O)O)C(C)C)C(C)(C)C)C(C)(C)c1cccc(NC(=O)OCc2cc(C)c(OC3OC(C(=O)O)C(O)C(O)C3O)c(NC(=O)CCNC(=O)CCCCC(=O)N3Cc4ccccc4C#Cc4ccccc43)c2)c1` (stereo partly drawn) [Compound 109a], the IC50 (Target Positive Cell) is reported as 661 nM, the “Target Positive Cell Span (%)” value (Target Positive Cell) is reported as 92% and the IC50 (Target Negative Cell) is reported as 2440 nM. The “Target Negative Cell Span (%)” value (Target Negative Cell) was 95%.

For `CN[C@H](C(=O)N[C@H](C(=O)N(C)[C@H](/C=C(\C)C(=O)O)C(C)C)C(C)(C)C)C(C)(C)c1cccc(NC(=O)OCc2ccc(NC(=O)[C@H](CCCNC(N)=O)NC(=O)[C@@H](NC(=O)CCC(=O)N3Cc4ccccc4C#Cc4ccccc43)C(C)C)cc2)c1` (single isomer, unassigned) [Compound 101a], the IC50 (Target Positive Cell) was 222 nM, the “Target Positive Cell Span (%)” value (Target Positive Cell) was 93% and the IC50 (Target Negative Cell) was 2010 nM. The “Target Negative Cell Span (%)” value (Target Negative Cell) was 110%.

With `CNC(C(=O)N[C@H](C(=O)N(C)[C@H](/C=C(\C)C(=O)O)C(C)C)C(C)(C)C)C(C)(C)c1cccc(NC(=O)[C@H](C)NC(=O)[C@@H](NC(=O)CCCCC(=O)N2Cc3ccccc3C#Cc3ccccc32)C(C)C)c1` (stereo partly drawn) [Compound 111a] the IC50 (Target Positive Cell) was 65 nM, the “Target Positive Cell Span (%)” value (Target Positive Cell) was 92% and the IC50 (Target Negative Cell) was 717 nM. The “Target Negative Cell Span (%)” value (Target Negative Cell) was 91%.

B1: anti-CD74: anti-CD74 lead SP7919 without conjugation (antibody, V domains shown)
VH: QVQLVESGGGVVQPGRSLRLSCAASGFNFSDYGMHWVRQAPGKGLEWVAVIWYDGSISYYADSVKGRFTISRDNSKNTLYLQMNSLRAEDTAVYYCARGGTVEHGAVYGTDVWGQGTTVTVSS
VL: DIQMTQSPSSVSASVGDRVTITCRASQGIGSWLAWYQQKPGKAPKLLIYAADRLQSGVPSRFSGSGSGTDFTLTISSLQPEDFATYYCQQYHTYPLTFGGGTKVEIK
modifications: non-natural residues
In the case of B1, the “Cell Binding anti-CD74 Bmax” value (RPMI-6666 (HL)) is reported as 3879, the Kd (RPMI-6666 (HL)) is reported as 2.3 nM and the “Cell Binding anti-CD74 Bmax” value (SU-DHL-6 (NHL)) is reported as 1565. The Kd (SU-DHL-6 (NHL)) was 2 nM, the “Cell Binding anti-CD74 Bmax” value (ARD (MM)) was 190 and the Kd (ARD (MM)) was 2.6 nM. For the same molecule, the “Cell Binding anti-CD74 Bmax” value (RPMI-8226 (MM)) was 119, the Kd (RPMI-8226 (MM)) was 3.6 nM and the “Cell Binding anti-CD74 Bmax” value (BDCM (AML)) was 3059. For the same molecule, the Kd (BDCM (AML)) was 4.5 nM, the “Cell Binding anti-CD74 Bmax” value (SUP-B15 (ALL)) was 680 and the Kd (SUP-B15 (ALL)) was 3.5 nM. For the same molecule, the “Cell Binding anti-CD74 Bmax” value (JVM-13 (CLL)) was 447 and the Kd (JVM-13 (CLL)) was 2.5 nM.
